Measurements published in DBAASP.
≈ marks a conversion by molar mass, not a printed value.

How the values were obtained:
Test in all cases: ≥ marks a high value that may be exact or a test limit, other limits are often not marked, values filed in µg/mL are converted to µM
[1] = test system: Micrococcus luteus A270
[2] = test system: Vibrio coralliilyticus YB1 CIP 107925
[3] = test system: Vibrio splendidus CIP 107715
[4] = test system: Staphylococcus aureus SG511
[5] = test system: Vibrio aestuarianus CIP 109791
[6] = test system: Corynebacterium stationis CIP 101282
[7] = test system: Microbacterium maritypicum CIP 105733T
[8] = test system: Fusarium oxysporum
[9] = test system: Escherichia coli SBS 363
[10] = test system: Bacillus megaterium IBMC
[11] = test system: Proteus vulgaris KCTC 2433
[12] = test system: Salmonella typhimurium KCTC 1926
[13] = test system: Trichosporon beigelii KCTC 7707
[14] = test system: Staphylococcus aureus KCTC 1621
[15] = test system: Saccharomyces cerevisiae KCTC 7296
[16] = test system: Bacillus subtilis KCTC 1918
[17] = test system: Candida albicans TIMM 1768
[18] = test system: Bacillus subtilis IFO 3143
[19] = test system: Pseudomonas aeruginosa IFO 12582
[20] = test system: Escherichia coli IFO 12734
[21] = test system: Staphylococcus aureus IFO 12732
[22] = test system: Staphylococcus aureus ATCC 29740
[23] = test system: Klebsiella pneumoniae ATCC 13882
[24] = test system: Enterobacter cloacae ATCC 13047
[25] = test system: Salmonella enterica subsp. enterica serovar Enteritidis ATCC 13076
[26] = test system: Pseudomonas aeruginosa ATCC 25010
[27] = test system: Staphylococcus saprophyticus ATCC 19701
[28] = test system: Salmonella enterica subsp. enterica serovar Typhimurium ATCC 14028
[29] = test system: Bacillus cereus ATCC 14579
[30] = test system: Escherichia coli
[31] = test system: Salmonella enterica subsp. enterica serovar Enteritidis LA5
[32] = test system: Listeria monocytogenes EGD
[33] = test system: Staphylococcus haemolyticus DSM 20263
[34] = test system: Bacillus subtilis

SMILES: CC[C@H](C)[C@@H]1NC(=O)CNC(=O)[C@H](CCCCN)NC(=O)[C@H](CCCCN)NC(=O)[C@H](CC(=O)O)NC(=O)[C@@H]2CSSC[C@@H]3NC(=O)[C@H](CO)NC(=O)[C@H](Cc4ccc(O)cc4)NC(=O)[C@H](CO)NC(=O)[C@H](CSSC[C@H](NC(=O)[C@H](Cc4ccccc4)NC(=O)[C@H]([C@@H](C)O)NC(=O)[C@H](CCCCN)NC(=O)CNC(=O)[C@H](CCCN=C(N)N)NC(=O)[C@H](CC(C)C)NC(=O)[C@H](CC(=O)O)NC(=O)[C@H](C)NC(=O)[C@@H](NC(=O)[C@H](C)N)CSSC[C@@H](C(=O)N[C@@H](CCCN=C(N)N)C(N)=O)NC(=O)CNC3=O)C(=O)N[C@@H](CCCN=C(N)N)C(=O)N[C@@H](CC(C)C)C(=O)N[C@@H](Cc3ccccc3)C(=O)N[C@@H](CCCCN)C(=O)N[C@@H](CO)C(=O)N[C@@H](Cc3ccc(O)cc3)C(=O)N2)NC(=O)[C@H](CCCCN)NC(=O)[C@H](CC(=O)O)NC(=O)[C@H](CCCN=C(N)N)NC(=O)[C@H](CCSC)NC(=O)[C@H](CC(C)C)NC(=O)[C@H](CCCN=C(N)N)NC(=O)CNC(=O)[C@H](CCCN=C(N)N)NC1=O [ACADLRGKTFCRLFKSYCDKKGIRGRLMRDKCSYSCGCR]
- MIC [1]: 1.25 µM (≈ 5.61 µg/mL)
- MIC [2]: 20 µM (≈ 89.8 µg/mL)
- MIC [3]: 20 µM (≈ 89.8 µg/mL)
- MIC [4]: 5 µM (≈ 22.5 µg/mL)
- MIC [5]: 20 µM (≈ 89.8 µg/mL)
- MIC [6]: 10 µM (≈ 44.9 µg/mL)
- MIC [7]: 20 µM (≈ 89.8 µg/mL)
- MIC [8]: 1.25 µM (≈ 5.61 µg/mL)
- MIC [9]: 10 µM (≈ 44.9 µg/mL)
- MIC [10]: 20 µM (≈ 89.8 µg/mL)

SMILES: CC[C@H](C)[C@H](NC(=O)CNC(=O)[C@H](CC(C)C)NC(=O)[C@H](CCCN=C(N)N)NC(=O)[C@H](CCCCN)NC(=O)[C@H](Cc1ccccc1)NC(=O)[C@@H](NC(=O)[C@H](CCCCN)NC(=O)[C@H](CCCCN)NC(=O)[C@H](C)N)C(C)C)C(=O)NCC(=O)N[C@@H](C)C(=O)N[C@H](C(=O)N[C@@H](CC(C)C)C(=O)N[C@@H](Cc1c[nH]c2ccccc12)C(=O)N[C@H](C(=O)N[C@@H](CC(C)C)C(=O)N[C@H](C(=O)N[C@H](C(=O)NCC(=O)O)[C@@H](C)O)[C@@H](C)O)C(C)C)C(C)C [AKKVFKRLGIGAVLWVLTTG]
- MIC [11]: 12.5 µM (≈ 27 µg/mL)
- MIC [12]: 0.78 µM (≈ 1.68 µg/mL)
- MIC [13]: ≥ 50 µM
- MIC [14]: 3.12 µM (≈ 6.73 µg/mL)
- MIC [15]: ≥ 50 µM
- MIC [16]: 3.12 µM (≈ 6.73 µg/mL)
- MIC [17]: ≥ 50 µM

SMILES: CC(C)C[C@H](NC(=O)[C@H](Cc1ccc(O)cc1)NC(=O)[C@H](Cc1cnc[nH]1)NC(=O)[C@@H](NC(=O)[C@H](CC(C)C)NC(=O)[C@H](C)NC(=O)[C@H](C)NC(=O)[C@H](CCCCN)NC(=O)[C@H](C)NC(=O)[C@@H](NC(=O)[C@H](Cc1cnc[nH]1)NC(=O)[C@H](CCCCN)NC(=O)[C@H](C)NC(=O)[C@@H](NC(=O)[C@H](Cc1cnc[nH]1)NC(=O)[C@H](C)NC(=O)[C@H](C)NC(=O)[C@H](CCCCN)NC(=O)[C@H](CCCCN)NC(=O)[C@H](Cc1ccccc1)NC(=O)[C@H](Cc1ccccc1)NC(=O)[C@H](CO)NC(=O)[C@H](C)NC(=O)[C@H](Cc1c[nH]c2ccccc12)NC(=O)[C@H](C)N)C(C)C)C(C)C)[C@@H](C)O)C(=O)O [AWASFFKKAAHVAKHVAKAALTHYL]
- MIC [18]: 0.723 µM (≈ 2 µg/mL)
- MIC [19]: 1.45 µM (≈ 4 µg/mL)
- MIC [20]: 0.723 µM (≈ 2 µg/mL)
- MIC [21]: 0.723 µM (≈ 2 µg/mL)

SMILES: CC[C@H](C)[C@H](NC(=O)[C@H](CCCN=C(N)N)NC(=O)[C@H](CCCCN)NC(=O)[C@@H]1CSSC[C@@H]2NC(=O)[C@H](CCCCN)NC(=O)[C@H](CC(C)C)NC(=O)[C@H](Cc3ccccc3)NC(=O)[C@H](C)NC(=O)[C@@H]3CSSC[C@H](NC(=O)[C@H](CCCCN)NC(=O)CNC(=O)[C@H](CO)NC(=O)[C@H]([C@@H](C)CC)NC(=O)[C@H](CC(C)C)NC(=O)[C@H]([C@@H](C)O)NC(=O)[C@H](CC(C)C)NC(=O)[C@H](CO)NC(=O)[C@@H]4CCCN4C2=O)C(=O)N[C@@H](CO)C(=O)N[C@@H](CCCN=C(N)N)C(=O)N[C@@H](Cc2ccccc2)C(=O)N[C@@H](Cc2ccc(O)cc2)C(=O)N[C@@H](CC(C)C)C(=O)N[C@@H](CSSC[C@H](NC(=O)[C@H](CC(=O)O)NC(=O)[C@H](CO)NC(=O)[C@H](CCCCN)NC(=O)[C@H](CCCN=C(N)N)NC(=O)CN)C(=O)N[C@@H](Cc2ccccc2)C(=O)N[C@@H](CCCN=C(N)N)C(=O)N[C@@H](CCCCN)C(=O)N[C@@H](CO)C(=O)NCC(=O)N[C@@H](Cc2ccccc2)C(=O)N3)C(=O)N1)C(=O)N[C@@H](Cc1c[nH]c2ccccc12)C(N)=O [GRKSDCFRKSGFCAFLKCPSLTLISGKCSRFYLCCKRIW]
- MIC [22]: 0.06 µM (≈ 0.27 µg/mL)
- MIC [23]: 0.0872 µM (≈ 0.393 µg/mL)
- MIC [24]: 0.177 µM (≈ 0.799 µg/mL)
- MIC [25]: 0.163 µM (≈ 0.732 µg/mL)
- MIC [26]: 0.244 µM (≈ 1.1 µg/mL)
- MIC [27]: 0.147 µM (≈ 0.662 µg/mL)
- MIC [28]: 0.139 µM (≈ 0.624 µg/mL)
- MIC [29]: 0.208 µM (≈ 0.938 µg/mL)
- MIC [30]: 0.256 µM (≈ 1.15 µg/mL)
- MIC [31]: 0.147 µM (≈ 0.662 µg/mL)
- MIC [32]: 0.236 µM (≈ 1.06 µg/mL)
- MIC [33]: 0.13 µM (≈ 0.584 µg/mL)
- MIC [34]: 0.187 µM (≈ 0.844 µg/mL)
